Experimental data from patent US12460262B2, “Methods of detecting, preventing, reversing, and treating neurological diseases” (Washington University, priority 2018, dated 2025).

Experiments:
ISF Aβ levels = system: ISF Aβ levels; parameters: species or system mice; conditions: mouse, in vivo
Method: To investigate the effect of NAGLU on Aβ generation and clearance, in vivo microdialysis is used to dynamically assess ISF Aβ metabolism in the hippocampus of 5XFAD/NAGLU (+14 5XFAD/NAGLU (−/−) mice and 5XFAD littermates injected with AVV2/9 or PBS at 3-4 months of age. To assess ISF Aβ levels over time in the hippocampus of awake, freely moving mice in vivo microdialysis is performed as previously described. Briefly, under isoflurane anesthesia, a guide cannula is stereotaxically implanted above the hippocampus (3.1 mm behind bregma, 2.5 mm lateral to midline, and 1.2 mm below dura at a 12° angle). A microdialysis probe is inserted through the guide cannula into the brain. Artificial CSF is used as microdialysis perfusion buffer. Microdialysis samples are collected every 60-90 min and are assessed for Aβ40 or Aβ42 by ELISAs. The mean concentration of Aβ over 6 hr is defined as basal concentration of ISF Aβ. For each animal, all Aβ concentrations are normalized to the basal Aβ concentration for that mouse. After basal concentration is determined mice are administered a blood-brain permeable γ-secretase inhibitor (LY411575, 3 mg/kg subcutaneously) to rapidly block the production of Aβ. […] The half-life of ISF Aβ is calculated on the basis of the slope of the semi-log plot of % change in Aβ versus time. […]

[1] = system: cultured fibroblasts of MPS patients; conditions: cited from earlier work
NAGLU-deficient mice = conditions: cited from earlier work
Aβ secretion = conditions: in vitro exposure; cited from earlier work

SMILES: CCN(CC)CCCC(C)Nc1ccnc2cc(Cl)ccc12 (centres unmarked) [Chloroquine]
- change of ISF levels of Aβ (ISF Aβ levels): did not change

SMILES: O=c1c(-c2ccc(O)cc2)coc2cc(O)cc(O)c12 [Genistein, 4′,5,7-trihydroxyisoflavone or 5,7-dihydroxy-3-(4-hydroxyphenyl)-4H-1-benzopyran-4-one]
- synthesis of glycosaminoglycans (GAGs) [1]: inhibits synthesis of glycosaminoglycans (GAGs)
- lysosomal storage material (NAGLU-deficient mice): reduces lysosomal storage material

SMILES: Cl.N [ammonium chloride]
- Aβ secretion (Aβ secretion): reduces Aβ secretion

SMILES: CO/C1=C\C(C)=C\[C@@H](C)[C@@H](O)[C@@H](C)C/C(C)=C/C=C/[C@H](OC)[C@@H]([C@@H](C)[C@@H](O)[C@H](C)[C@@]2(O)C[C@@H](O)[C@H](C)[C@@H](C(C)C)O2)OC1=O [bafilomycin A1]
- Aβ secretion (Aβ secretion): reduces Aβ secretion
